Experimental data from ChEMBL document CHEMBL3132769, “Fragment growing to retain or alter the selectivity of anchored kinase hinge-binding fragments” (Medchemcomm, 2014).

Assays:
[1] = target: Rho-associated protein kinase 2 (Homo sapiens) (UniProt O75116); experiment: Inhibition of human ROCK2 catalytic domain expressed in baculovirus assessed as substrate phosphorylation using fluorescence-labelled peptides as substrate at 0.2 uM after 90 mins by microfluidic peptide phosphorylation assay
[2] = target: Serine/threonine-protein kinase MARK1 (Homo sapiens) (UniProt Q9P0L2); experiment: Inhibition of human full length MARK1 expressed in baculovirus assessed as substrate phosphorylation using fluorescence-labelled peptides as substrate at 0.2 uM after 90 mins by microfluidic peptide phosphorylation assay
Sequence of Serine/threonine-protein kinase MARK1 (Homo sapiens) (Q9P0L2 whole entry, looked up): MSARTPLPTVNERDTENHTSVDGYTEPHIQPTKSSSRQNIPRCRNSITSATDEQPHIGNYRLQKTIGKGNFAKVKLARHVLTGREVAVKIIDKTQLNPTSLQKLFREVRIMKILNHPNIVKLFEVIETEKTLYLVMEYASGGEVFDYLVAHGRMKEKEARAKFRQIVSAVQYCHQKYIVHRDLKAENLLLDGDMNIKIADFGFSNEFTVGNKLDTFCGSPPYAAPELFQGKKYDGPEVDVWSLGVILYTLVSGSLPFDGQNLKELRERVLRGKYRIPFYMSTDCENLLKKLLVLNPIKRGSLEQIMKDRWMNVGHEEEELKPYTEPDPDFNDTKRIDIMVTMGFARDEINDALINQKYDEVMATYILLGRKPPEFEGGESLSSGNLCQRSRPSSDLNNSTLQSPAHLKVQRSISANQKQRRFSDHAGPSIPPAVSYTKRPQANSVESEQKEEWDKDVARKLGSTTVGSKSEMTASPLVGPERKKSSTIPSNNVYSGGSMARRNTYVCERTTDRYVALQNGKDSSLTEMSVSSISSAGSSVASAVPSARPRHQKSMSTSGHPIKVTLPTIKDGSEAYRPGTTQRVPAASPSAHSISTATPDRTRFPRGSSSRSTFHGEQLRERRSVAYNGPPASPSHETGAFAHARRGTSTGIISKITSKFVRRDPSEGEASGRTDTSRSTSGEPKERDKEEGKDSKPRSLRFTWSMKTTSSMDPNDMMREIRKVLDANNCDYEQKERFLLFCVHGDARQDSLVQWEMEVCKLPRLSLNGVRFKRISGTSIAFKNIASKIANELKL

[3] = target: Serine/threonine-protein kinase Chk2 (Homo sapiens) (UniProt O96017); experiment: Inhibition of human full length CHK2 expressed in baculovirus assessed as substrate phosphorylation using fluorescence-labelled peptides as substrate at 0.2 uM after 90 mins by microfluidic peptide phosphorylation assay
[4] = target: T1, Protein kinase C zeta type (Homo sapiens) (UniProt Q05513); experiment: Inhibition of human full length PKC zeta expressed in baculovirus assessed as substrate phosphorylation using fluorescence-labelled peptides as substrate at 9 uM after 90 mins by microfluidic peptide phosphorylation assay
T1 sequence (whole entry): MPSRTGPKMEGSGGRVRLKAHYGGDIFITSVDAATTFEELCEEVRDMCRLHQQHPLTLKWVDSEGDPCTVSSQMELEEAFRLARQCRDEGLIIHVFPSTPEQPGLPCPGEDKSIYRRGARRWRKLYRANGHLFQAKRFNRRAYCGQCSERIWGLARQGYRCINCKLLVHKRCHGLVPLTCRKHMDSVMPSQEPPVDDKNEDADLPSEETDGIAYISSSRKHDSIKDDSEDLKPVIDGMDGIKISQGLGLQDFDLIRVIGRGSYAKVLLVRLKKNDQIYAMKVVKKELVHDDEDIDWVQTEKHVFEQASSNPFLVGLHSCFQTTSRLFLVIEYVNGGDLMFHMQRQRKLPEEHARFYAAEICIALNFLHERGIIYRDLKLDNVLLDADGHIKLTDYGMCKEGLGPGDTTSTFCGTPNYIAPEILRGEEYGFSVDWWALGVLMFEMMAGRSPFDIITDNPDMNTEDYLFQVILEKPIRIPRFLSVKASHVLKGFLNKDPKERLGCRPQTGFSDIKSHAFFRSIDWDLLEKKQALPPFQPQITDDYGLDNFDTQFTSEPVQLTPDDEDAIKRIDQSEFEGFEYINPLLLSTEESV

[5] = target: T2, Interleukin-1 receptor-associated kinase 4 (Homo sapiens) (UniProt Q9NWZ3); experiment: Inhibition of human IRAK4 catalytic domain expressed in baculovirus assessed as substrate phosphorylation using fluorescence-labelled peptides as substrate at 9 uM after 90 mins by microfluidic peptide phosphorylation assay
T2 sequence (whole entry): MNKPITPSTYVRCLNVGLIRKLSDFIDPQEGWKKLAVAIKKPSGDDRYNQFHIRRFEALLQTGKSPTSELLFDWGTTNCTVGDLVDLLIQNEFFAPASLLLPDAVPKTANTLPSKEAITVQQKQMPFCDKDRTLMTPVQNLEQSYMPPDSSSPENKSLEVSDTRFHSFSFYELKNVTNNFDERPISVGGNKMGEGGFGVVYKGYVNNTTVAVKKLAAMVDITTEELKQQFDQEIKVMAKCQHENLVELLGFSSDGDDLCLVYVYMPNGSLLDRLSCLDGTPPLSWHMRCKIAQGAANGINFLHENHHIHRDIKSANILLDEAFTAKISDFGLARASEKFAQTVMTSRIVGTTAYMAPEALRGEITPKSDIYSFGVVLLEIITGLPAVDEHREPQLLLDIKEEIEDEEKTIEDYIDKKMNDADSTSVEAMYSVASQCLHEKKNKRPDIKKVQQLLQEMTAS

[6] = target: RAF proto-oncogene serine/threonine-protein kinase (Homo sapiens) (UniProt P04049); experiment: Inhibition of human truncated c-Raf expressed in baculovirus assessed as substrate phosphorylation using fluorescence-labelled peptides as substrate at 95 uM after 90 mins by microfluidic peptide phosphorylation assay
Sequence of RAF proto-oncogene serine/threonine-protein kinase (Homo sapiens) (P04049 whole entry, the tested form may be a part): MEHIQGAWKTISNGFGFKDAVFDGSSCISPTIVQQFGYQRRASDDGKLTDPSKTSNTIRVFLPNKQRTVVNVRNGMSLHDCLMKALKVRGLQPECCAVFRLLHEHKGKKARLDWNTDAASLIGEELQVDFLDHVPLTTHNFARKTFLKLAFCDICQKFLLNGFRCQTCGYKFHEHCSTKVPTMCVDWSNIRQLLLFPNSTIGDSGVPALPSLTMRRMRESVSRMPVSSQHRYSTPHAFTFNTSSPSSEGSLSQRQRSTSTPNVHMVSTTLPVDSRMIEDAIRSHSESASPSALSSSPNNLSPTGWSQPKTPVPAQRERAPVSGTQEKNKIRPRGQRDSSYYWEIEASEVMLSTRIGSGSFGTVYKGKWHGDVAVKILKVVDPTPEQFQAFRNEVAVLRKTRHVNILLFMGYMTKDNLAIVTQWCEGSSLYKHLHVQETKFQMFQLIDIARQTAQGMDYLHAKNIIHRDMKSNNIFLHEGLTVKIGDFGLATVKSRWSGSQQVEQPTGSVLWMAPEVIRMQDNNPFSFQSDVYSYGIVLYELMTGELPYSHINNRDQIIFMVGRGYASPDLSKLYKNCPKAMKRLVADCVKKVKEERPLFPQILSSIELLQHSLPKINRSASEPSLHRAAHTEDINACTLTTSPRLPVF

[7] = target: Mitogen-activated protein kinase 1 (Homo sapiens) (UniProt P28482); experiment: Inhibition of human full length ERK2 expressed in Escherichia coli cell assessed as substrate phosphorylation using fluorescence-labelled peptides as substrate at 0.06 uM after 90 mins by microfluidic peptide phosphorylation assay
Sequence of Mitogen-activated protein kinase 1 (Homo sapiens) (P28482 whole entry): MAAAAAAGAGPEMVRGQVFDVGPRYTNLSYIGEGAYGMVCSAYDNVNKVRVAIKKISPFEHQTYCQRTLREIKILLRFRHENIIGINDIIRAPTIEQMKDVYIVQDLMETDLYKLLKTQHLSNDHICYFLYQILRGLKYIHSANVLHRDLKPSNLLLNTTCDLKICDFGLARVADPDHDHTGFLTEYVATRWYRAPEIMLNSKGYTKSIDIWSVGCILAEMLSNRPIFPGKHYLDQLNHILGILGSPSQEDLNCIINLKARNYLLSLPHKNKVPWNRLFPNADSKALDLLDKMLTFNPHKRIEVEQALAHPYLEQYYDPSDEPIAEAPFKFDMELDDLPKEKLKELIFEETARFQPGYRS

[8] = target: Glycogen synthase kinase-3 beta (Homo sapiens) (UniProt P49841); experiment: Inhibition of human full length GSK-3 beta expressed in baculovirus assessed as substrate phosphorylation using fluorescence-labelled peptides as substrate at 8 uM after 90 mins by microfluidic peptide phosphorylation assay
Sequence of Glycogen synthase kinase-3 beta (Homo sapiens) (P49841 whole entry, looked up, the tested form may be a part): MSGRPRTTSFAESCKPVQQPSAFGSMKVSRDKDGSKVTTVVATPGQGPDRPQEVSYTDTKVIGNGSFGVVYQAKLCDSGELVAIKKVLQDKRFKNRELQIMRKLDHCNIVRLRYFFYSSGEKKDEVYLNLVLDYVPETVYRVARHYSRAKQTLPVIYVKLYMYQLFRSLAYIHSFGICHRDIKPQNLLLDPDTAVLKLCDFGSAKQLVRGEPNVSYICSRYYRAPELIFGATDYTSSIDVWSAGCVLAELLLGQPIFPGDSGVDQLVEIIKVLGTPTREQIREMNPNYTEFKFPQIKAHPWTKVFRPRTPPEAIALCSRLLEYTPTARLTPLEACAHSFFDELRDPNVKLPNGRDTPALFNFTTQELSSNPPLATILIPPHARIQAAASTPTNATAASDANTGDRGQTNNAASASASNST

[9] = target: Calcium/calmodulin-dependent protein kinase type II subunit beta (Homo sapiens) (UniProt Q13554); experiment: Inhibition of human CAMK2 beta catalytic domain expressed in baculovirus assessed as substrate phosphorylation using fluorescence-labelled peptides as substrate at 70 uM after 90 mins by microfluidic peptide phosphorylation assay
Sequence of Calcium/calmodulin-dependent protein kinase type II subunit beta (Homo sapiens) (Q13554 whole entry, the tested form may be a part): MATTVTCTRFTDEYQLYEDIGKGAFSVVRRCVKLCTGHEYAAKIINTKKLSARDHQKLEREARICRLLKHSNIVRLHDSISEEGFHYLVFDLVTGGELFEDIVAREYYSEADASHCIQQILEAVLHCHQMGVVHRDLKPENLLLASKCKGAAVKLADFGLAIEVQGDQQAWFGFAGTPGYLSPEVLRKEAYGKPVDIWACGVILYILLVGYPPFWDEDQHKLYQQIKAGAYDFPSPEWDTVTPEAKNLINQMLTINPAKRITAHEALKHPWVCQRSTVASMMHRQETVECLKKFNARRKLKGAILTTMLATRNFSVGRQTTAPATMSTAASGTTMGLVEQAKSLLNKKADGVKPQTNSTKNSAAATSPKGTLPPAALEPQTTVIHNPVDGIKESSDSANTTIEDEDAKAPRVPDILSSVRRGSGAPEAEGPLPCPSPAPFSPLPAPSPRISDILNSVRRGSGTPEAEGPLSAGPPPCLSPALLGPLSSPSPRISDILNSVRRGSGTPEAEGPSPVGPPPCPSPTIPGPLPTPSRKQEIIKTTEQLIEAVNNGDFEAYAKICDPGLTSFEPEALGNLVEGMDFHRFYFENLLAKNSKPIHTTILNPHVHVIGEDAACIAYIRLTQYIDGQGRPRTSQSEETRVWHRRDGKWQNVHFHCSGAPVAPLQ

[10] = target: Proto-oncogene tyrosine-protein kinase Src (Homo sapiens) (UniProt P12931); experiment: Inhibition of human full length SRC expressed in baculovirus assessed as substrate phosphorylation using fluorescence-labelled peptides as substrate at 70 uM after 90 mins by microfluidic peptide phosphorylation assay
[11] = target: MAP kinase-activated protein kinase 2 (Homo sapiens) (UniProt P49137); experiment: Inhibition of human full length MAPKAPK2 expressed in baculovirus assessed as substrate phosphorylation using fluorescence-labelled peptides as substrate at 70 uM after 90 mins by microfluidic peptide phosphorylation assay
Sequence of MAP kinase-activated protein kinase 2 (Homo sapiens) (P49137 whole entry, looked up): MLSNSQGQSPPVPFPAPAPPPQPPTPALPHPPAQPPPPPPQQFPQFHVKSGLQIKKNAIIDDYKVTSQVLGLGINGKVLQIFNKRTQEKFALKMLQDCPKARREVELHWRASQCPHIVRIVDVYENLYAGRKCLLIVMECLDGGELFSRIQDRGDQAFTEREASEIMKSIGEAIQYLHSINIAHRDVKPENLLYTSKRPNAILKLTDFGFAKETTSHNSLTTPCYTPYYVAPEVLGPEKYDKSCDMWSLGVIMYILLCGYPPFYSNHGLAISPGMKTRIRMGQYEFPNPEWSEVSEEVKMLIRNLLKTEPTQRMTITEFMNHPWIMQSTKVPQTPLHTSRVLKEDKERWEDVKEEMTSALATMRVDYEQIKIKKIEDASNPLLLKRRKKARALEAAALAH

[12] = target: Serine/threonine-protein kinase pim-1 (Homo sapiens) (UniProt P11309); experiment: Inhibition of human full length PIM1 expressed in baculovirus assessed as substrate phosphorylation using fluorescence-labelled peptides as substrate at 1000 uM after 90 mins by microfluidic peptide phosphorylation assay
Sequence of Serine/threonine-protein kinase pim-1 (Homo sapiens) (P11309 whole entry, looked up): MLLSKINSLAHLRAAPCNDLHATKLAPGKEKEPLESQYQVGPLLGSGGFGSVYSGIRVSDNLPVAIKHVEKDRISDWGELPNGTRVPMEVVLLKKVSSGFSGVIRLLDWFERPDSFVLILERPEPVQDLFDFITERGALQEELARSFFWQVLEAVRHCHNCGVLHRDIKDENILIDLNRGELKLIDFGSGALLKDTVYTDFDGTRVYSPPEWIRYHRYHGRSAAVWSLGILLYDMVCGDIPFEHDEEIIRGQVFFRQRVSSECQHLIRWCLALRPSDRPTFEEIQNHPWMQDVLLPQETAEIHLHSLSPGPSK

Sequence of Rho-associated protein kinase 2 (Homo sapiens) (O75116 whole entry, looked up, the tested form may be a part): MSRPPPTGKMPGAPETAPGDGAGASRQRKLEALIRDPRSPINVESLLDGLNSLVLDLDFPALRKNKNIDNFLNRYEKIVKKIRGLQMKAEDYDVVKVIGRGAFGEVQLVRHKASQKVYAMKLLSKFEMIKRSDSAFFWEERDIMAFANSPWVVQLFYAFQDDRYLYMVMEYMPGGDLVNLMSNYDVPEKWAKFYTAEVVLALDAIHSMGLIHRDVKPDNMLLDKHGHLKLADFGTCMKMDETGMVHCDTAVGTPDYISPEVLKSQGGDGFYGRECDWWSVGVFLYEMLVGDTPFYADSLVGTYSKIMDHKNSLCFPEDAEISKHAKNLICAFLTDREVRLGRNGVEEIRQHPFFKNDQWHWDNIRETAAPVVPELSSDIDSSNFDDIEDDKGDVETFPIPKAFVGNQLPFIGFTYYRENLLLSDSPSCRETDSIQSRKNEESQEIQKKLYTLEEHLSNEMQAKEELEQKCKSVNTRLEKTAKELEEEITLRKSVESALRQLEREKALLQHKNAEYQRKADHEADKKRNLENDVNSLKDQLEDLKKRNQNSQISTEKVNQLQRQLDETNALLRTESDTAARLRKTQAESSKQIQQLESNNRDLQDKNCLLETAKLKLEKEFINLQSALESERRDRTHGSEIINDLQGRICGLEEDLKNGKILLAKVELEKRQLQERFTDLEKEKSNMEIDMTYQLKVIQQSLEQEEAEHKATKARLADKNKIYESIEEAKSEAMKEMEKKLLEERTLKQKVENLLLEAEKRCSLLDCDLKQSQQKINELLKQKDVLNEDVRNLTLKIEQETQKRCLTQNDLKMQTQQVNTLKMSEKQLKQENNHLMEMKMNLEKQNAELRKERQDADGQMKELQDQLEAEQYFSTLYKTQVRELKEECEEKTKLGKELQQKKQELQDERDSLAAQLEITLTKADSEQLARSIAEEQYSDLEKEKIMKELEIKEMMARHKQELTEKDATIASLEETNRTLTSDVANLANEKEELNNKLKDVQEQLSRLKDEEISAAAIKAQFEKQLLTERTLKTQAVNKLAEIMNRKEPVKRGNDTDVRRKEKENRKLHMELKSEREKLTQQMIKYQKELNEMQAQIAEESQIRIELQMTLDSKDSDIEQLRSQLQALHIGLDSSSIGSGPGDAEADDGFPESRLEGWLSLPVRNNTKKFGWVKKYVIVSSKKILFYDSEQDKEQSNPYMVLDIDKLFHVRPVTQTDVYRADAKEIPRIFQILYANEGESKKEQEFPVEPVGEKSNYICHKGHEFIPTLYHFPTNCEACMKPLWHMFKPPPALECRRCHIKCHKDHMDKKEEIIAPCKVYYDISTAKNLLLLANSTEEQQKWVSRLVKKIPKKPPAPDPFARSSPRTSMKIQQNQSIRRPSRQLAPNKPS

SMILES: Clc1ccc(C2(c3ccc(-c4ncnc5[nH]cnc45)cc3)CCNCC2)cc1
- inhibition [1]: 97%
- inhibition [2]: 51%
- inhibition [3]: 59%

SMILES: NCC1CN(c2ncnc3[nH]c4cnccc4c23)CCO1 (configuration not stated)
- inhibition [4]: 22%
- inhibition [5]: 56.5%

SMILES: NCCc1ccc(-c2ncnc3[nH]cnc23)cc1
- inhibition [6]: 39.5%

SMILES: NC1(Cc2ccc(Cl)cc2)CCN(c2ncnc3[nH]ccc23)CC1
- inhibition [7]: 4.5%

SMILES: NCC1CCN(c2ncnc3[nH]ccc23)CC1
- inhibition [8]: 0%

SMILES: CNCc1ccc(-c2ncnc3[nH]cnc23)cc1
- inhibition [9]: 6.5%
- inhibition [10]: 37.5%
- inhibition [11]: 77%

SMILES: c1cnc2[nH]ccc2c1
- inhibition [12]: 20%
